The source of these data is US20260055097A9, “NRF2 PROTEIN DEGRADERS” (Ganymede Oncology, Inc., priority 2022, published 2026).

Read-outs that look alike come from different tables or passages of the source.

Experiment [1] has as its system A549. The experiment is described as follows: Cancer cell viability, A549 (CellTiter-Glo). In kind it is cell-based. The note with it: Homo sapiens, 72 h, A549 cells, 3 days, read-out: Cellular IC50 (μM) A549. The method, then:
Representative Compounds of the Disclosure were tested in A549 (Vendor: ATCC; Cat #CCL-185; Description: lung, carcinoma) and/or LK-2 (Vendor: Riken; Cat #RCB1970; Description: lung, squamous cell carcinoma) cellular viability assays according to the following general protocol. • 1. Observed the cells under microscope. • 2. Aspirated the media and added 5 mL trypsin and incubate for 3 mins. • 3. Added 10 mL fresh media and harvested all the cells in to 15 mL tubes. • 4. Centrifuged the cells at 1000 rpm for 5 mins. • 5. Re-suspended the cells with 11 mL media and took 1 mL to determine the cell number and viability. • 6. Prepared cells suspension at 20 K/mL (A549) or 35 K/mL (LK-2) • 7. Seeded the cells into 96-well plate and incubated for overnight. • 8. […] After 3 days, took out the plates from the incubator and observed the cells under microscope. • 10. Passed a film at the bottom of the plates. • 11. Equilibrated the plate and its contents at room temperature for approximately 30 minutes. • 12. Thawed the CellTiter-Glo® Buffer and equilibrated to room temperature prior to use. • 13. Equilibrated the lyophilized CellTiter-Glo® Substrate to room temperature prior to use. • 14. Transferred 100 ml of CellTiter-Glo® Buffer into the amber bottle containing CellTiter-Glo® Substrate to reconstituted the lyophilized enzyme/substrate mixture. • 15. Mixed by gently vortexing, swirling or inverting the contents to obtain a homogeneous solution. • 16. Added 100 μL CellTiter-Glo® Reagent into each well • 17. Mixed contents for 15 minutes on an orbital shaker to induce cell lysis. • 18. Recorded luminescence with EnSpire machine. • 19. Passed the raw data into the file and analyzed the data with XLfit software.
On the technique in general: Cellular ATP, detected with luciferase, serves as a proxy for viable cell number.

Experiment [2] has as its target T1, Nrf2 (Homo sapiens, UniProt Q16236).
T1 sequence (Q16236 1-605): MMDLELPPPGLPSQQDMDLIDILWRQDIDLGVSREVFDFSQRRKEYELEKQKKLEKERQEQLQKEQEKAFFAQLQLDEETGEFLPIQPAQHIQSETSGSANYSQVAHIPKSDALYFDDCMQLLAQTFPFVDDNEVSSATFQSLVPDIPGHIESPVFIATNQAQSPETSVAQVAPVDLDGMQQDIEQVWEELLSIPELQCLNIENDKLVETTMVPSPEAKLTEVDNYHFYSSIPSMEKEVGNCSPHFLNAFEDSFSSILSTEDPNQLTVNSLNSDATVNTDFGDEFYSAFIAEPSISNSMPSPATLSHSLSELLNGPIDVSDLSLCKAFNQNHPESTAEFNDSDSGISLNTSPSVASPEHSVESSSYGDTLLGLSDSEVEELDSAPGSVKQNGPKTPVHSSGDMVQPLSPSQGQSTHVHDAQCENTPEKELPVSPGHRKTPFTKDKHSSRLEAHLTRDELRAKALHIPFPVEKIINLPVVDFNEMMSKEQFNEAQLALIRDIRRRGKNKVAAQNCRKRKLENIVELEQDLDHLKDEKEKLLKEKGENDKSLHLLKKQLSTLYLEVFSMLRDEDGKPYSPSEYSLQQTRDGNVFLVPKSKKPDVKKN
The experiment is described as follows: Nrf2 degradation in A549 HiBiT-Nrf2 cells, Nano-Glo HiBiT lytic detection (HiBiT readout). In kind it is cell-based. Set-up: host or cells: A549 HiBiT-Nrf2 cells (engineered line bought from Promega). The method, then: A549 HiBiT-Nrf2 cells (Promega, Cat. No. CS3023219) were seeded into 384-well plates at cell density of 5,000 cells/well in 40 μL of cell culture medium (Ham's F-12 Nutrient Mix supplemented with 10% FBS and 1% antibiotic-antimycotic).
The next day, cells were treated with representative Compounds of the Disclosure and incubated for 6 h and 20 h at 37° C., 5% CO2. Staurosporine was used as a control.
At the end of incubation Nrf2 degradation (HiBiT readout) and cell viability (CellTiter-Glo readout) were determined. For HiBiT readout, Nano-Glo HiBiT Reagent mix (Promega, Cat. No. N3050) was added to wells, plates were incubated 2 min on an orbital shaker and incubated at room temperature in the dark for additional 30 minutes. At the end of incubation luminescence was measured using ultrasensitive luminescence mode (Envision, Perkin Elmer).
Background: HiBiT is a short tag that completes a luciferase, so light tracks the accessible tagged protein.

The mark [3] stands for this setting: 6 h, read-out: DC50 (nM) at 6 h.
[4] abbreviates: 20 h, read-out: DC50 (nM) at 20 h.

A word on the IC50: it is the concentration that inhibits the measured activity by half. What is called DC50 is the concentration at which degradation of the target reaches its halfway point. As to `Cc1sc(NC(=O)Cc2cccc(OCCCCNc3cccc4c3C(=O)N(C3CCC(=O)NC3=O)C4=O)c2)nc1-c1ccc2c(c1)CCN2C(=O)C1CC1` (stereo not drawn) [Cpd. No. 65, N-(4-(1-(cyclopropanecarbonyl)indolin-5-yl)-5-methylthiazol-2-yl)-2-(3-(4-((2-(2,6-dioxopiperidin-3-yl)-1,3-dioxoisoindolin-4-yl)amino)butoxy)phenyl)acetamide], the IC50 in experiment [1] was found to be 0.12 µM. The DC50 in experiment [2] (setting [3]) and in experiment [2] (setting [4]) was less than 300 nM in each case.

`Cc1sc(NC(=O)Cc2cccc(OCCCCCCNc3cccc4c3C(=O)N(C3CCC(=O)NC3=O)C4=O)c2)nc1-c1ccc2c(c1)CCN2C(=O)C1CC1` (stereo not drawn) [Cpd. No. 66, N-(4-(1-(cyclopropanecarbonyl)indolin-5-yl)-5-methylthiazol-2-yl)-2-(3-((6-((2-(2,6-dioxopiperidin-3-yl)-1,3-dioxoisoindolin-4-yl)amino)hexyl)oxy)phenyl)acetamide]: the IC50 in experiment [1] was determined as 0.16 µM. In addition, the DC50 in experiment [2] (setting [3]) is 300 to 3000 nM; in experiment [2] (setting [4]) it was less than 300 nM.

Turning to `CC(=O)N1CCc2cc(-c3nc(NC(=O)Cc4cccc(OCCCCCNc5cccc6c5C(=O)N(C5CCC(=O)NC5=O)C6=O)c4)sc3C)ccc21` (stereo not drawn) [Cpd. No. 67, N-(4-(1-acetylindolin-5-yl)-5-methylthiazol-2-yl)-2-(3-((5-((2-(2,6-dioxopiperidin-3-yl)-1,3-dioxoisoindolin-4-yl)amino)pentyl)oxy)phenyl)acetamide], the IC50 in experiment [1] amounted to 0.75 µM. In addition, the 50% degradation concentration (DC50) in experiment [2] (setting [3]) and in experiment [2] (setting [4]) was less than 300 nM in each case.

For the molecule `Cc1sc(NC(=O)Cc2cccc(OCCC3CCN(c4ccc5c(c4)C(=O)N(C4CCC(=O)NC4=O)C5=O)CC3)c2)nc1-c1ccc2c(c1)CCN2C(=O)C1CC1` (stereo not drawn) [Cpd. No. 68, N-(4-(1-(cyclopropanecarbonyl)indolin-5-yl)-5-methylthiazol-2-yl)-2-(3-(2-(1-(2-(2,6-dioxopiperidin-3-yl)-1,3-dioxoisoindolin-5-yl)piperidin-4-yl)ethoxy)phenyl)acetamide], the IC50 in experiment [1] was more than 30 µM. In experiment [2] (setting [4]), the 50% degradation concentration (DC50) was less than 300 nM.

For the molecule `Cc1sc(NC(=O)Cc2cccc(OCCCCCNc3cccc4c3CN(C3CCC(=O)NC3=O)C4=O)c2)nc1-c1ccc2c(c1)CCN2C(=O)C1CC1` (stereo not drawn) [Cpd. No. 69, N-(4-(1-(cyclopropanecarbonyl)indolin-5-yl)-5-methylthiazol-2-yl)-2-(3-((5-((2-(2,6-dioxopiperidin-3-yl)-1-oxoisoindolin-4-yl)amino)pentyl)oxy)phenyl)acetamide], the IC50 in experiment [1] was 0.18 µM. Further, the DC50 in experiment [2] (setting [3]) and in experiment [2] (setting [4]) was less than 300 nM each time.

Turning to `Cc1sc(NC(=O)Cc2cccc(OCCCCCCCCNc3cccc4c3C(=O)N(C3CCC(=O)NC3=O)C4=O)c2)nc1-c1ccc2c(c1)CCN2C(=O)C1CC1` (stereo not drawn) [Cpd. No. 72, N-(4-(1-(cyclopropanecarbonyl)indolin-5-yl)-5-methylthiazol-2-yl)-2-(3-((8-((2-(2,6-dioxopiperidin-3-yl)-1,3-dioxoisoindolin-4-yl)amino)octyl)oxy)phenyl)acetamide], the IC50 in experiment [1] came to 0.23 µM. In addition, the 50% degradation concentration (DC50) in experiment [2] (setting [4]) was more than 3000 nM.

On to `Cc1ncccc1C(=O)N1CCc2cc(-c3nc(NC(=O)Cc4cccc(OCCOCCNc5cccc6c5C(=O)N(C5CCC(=O)NC5=O)C6=O)c4)sc3C)ccc21` (stereo not drawn) [Cpd. No. 76, 2-(3-(2-(2-((2-(2,6-dioxopiperidin-3-yl)-1,3-dioxoisoindolin-4-yl)amino)ethoxy)ethoxy)phenyl)-N-(5-methyl-4-(1-(2-methylnicotinoyl)indolin-5-yl)thiazol-2-yl)acetamide], for which the IC50 in experiment [1] is 0.011 µM. Also, the values for the DC50 in experiment [2] (setting [3]) and in experiment [2] (setting [4]) were more than 3000 nM and less than 300 nM, respectively.

Turning to `Cc1cnccc1C(=O)N1CCc2cc(-c3nc(NC(=O)Cc4cccc(OCCOCCNc5cccc6c5C(=O)N(C5CCC(=O)NC5=O)C6=O)c4)sc3C)ccc21` (stereo not drawn) [Cpd. No. 77, 2-(3-(2-(2-((2-(2,6-dioxopiperidin-3-yl)-1,3-dioxoisoindolin-4-yl)amino)ethoxy)ethoxy)phenyl)-N-(5-methyl-4-(1-(3-methylisonicotinoyl)indolin-5-yl)thiazol-2-yl)acetamide], the IC50 in experiment [1] was 0.0077 µM. Besides, the DC50 was more than 3000 nM in experiment [2] (setting [3]) and less than 300 nM in experiment [2] (setting [4]).

Take `Cc1ccncc1C(=O)N1CCc2cc(-c3nc(NC(=O)Cc4cccc(OCCOCCNc5cccc6c5C(=O)N(C5CCC(=O)NC5=O)C6=O)c4)sc3C)ccc21` (stereo not drawn) [Cpd. No. 78, 2-(3-(2-(2-((2-(2,6-dioxopiperidin-3-yl)-1,3-dioxoisoindolin-4-yl)amino)ethoxy)ethoxy)phenyl)-N-(5-methyl-4-(1-(4-methylnicotinoyl)indolin-5-yl)thiazol-2-yl)acetamide]: the IC50 in experiment [1] came out at 0.0059 µM. The DC50 in experiment [2] (setting [3]) was more than 3000 nM; in experiment [2] (setting [4]), less than 300 nM.

On to `Cc1cccnc1C(=O)N1CCc2cc(-c3nc(NC(=O)Cc4cccc(OCCOCCNc5cccc6c5C(=O)N(C5CCC(=O)NC5=O)C6=O)c4)sc3C)ccc21` (stereo not drawn) [Cpd. No. 79, 2-(3-(2-(2-((2-(2,6-dioxopiperidin-3-yl)-1,3-dioxoisoindolin-4-yl)amino)ethoxy)ethoxy)phenyl)-N-(5-methyl-4-(1-(3-methylpicolinoyl)indolin-5-yl)thiazol-2-yl)acetamide], for which the IC50 in experiment [1] was 0.043 µM. The DC50 in experiment [2] (setting [3]) was more than 3000 nM; in experiment [2] (setting [4]) it was less than 300 nM.

`COc1ccncc1C(=O)N1CCc2cc(-c3nc(NC(=O)Cc4cccc(OCCOCCNc5cccc6c5C(=O)N(C5CCC(=O)NC5=O)C6=O)c4)sc3C)ccc21` (stereo not drawn) [Cpd. No. 80, 2-(3-(2-(2-((2-(2,6-dioxopiperidin-3-yl)-1,3-dioxoisoindolin-4-yl)amino)ethoxy)ethoxy)phenyl)-N-(4-(1-(4-methoxynicotinoyl)indolin-5-yl)-5-methylthiazol-2-yl)acetamide]: the IC50 in experiment [1] came out at 0.075 µM. Moreover, the DC50 in experiment [2] (setting [3]) is more than 3000 nM.
